System: Limosilactobacillus reuteri GOLDGUT-LR99
Test: Carbon source utilization and oxidation experiment (AN Biolog micro-pore plate)
Format: cell-based
Settings: substrate utilization by the strain; for Utilization (Y=OD590−OD750): 37° C. anaerobic culture for 24 hours
Experimental: The AN Biolog micro-pore plate was used for measuring the utilization and oxidation conditions of different carbon sources of Limosilactobacillus reuteri GOLDGUT-LR99, the AN microplate used nutrients and biochemical reagents, and the method included the following steps: 1 mL of Limosilactobacillus reuteri GOLDGUT-LR99 bacterial liquid of the strain to be detected at the end of logarithmic growth was pipetted and centrifuged, then the supernatant was removed, the cells was washed three times with the seed liquid and suspended with 1 mL of the seed liquid, 50 μL of the suspension was taken and diluted in 10 mL of the seed liquid, the diluent was subpacked in a Biolog plate (100 μL/pore) after mixing uniformly, and the Biolog plate with the diluent was placed in 37° C. for anaerobic culture for 24 hours. After the culture was finished, OD590 and OD750 were detected by using microplate reader, the numerical values were recorded, and the utilization conditions of carbohydrate, organic acid and other substances of the Limosilactobacillus reuteri GOLDGUT-LR99 were calculated, wherein the calculation method was as follows: Y=OD590−OD750;

| Compound | Utilization (Y=OD590−OD750) | utilization effect (in words) |
| --- | --- | --- |
| OC[C@H]1O[C@H](O[C@H]2[C@H](O)[C@@H](O)[C@H](O)O[C@@H]2CO)[C@H](O)[C@@H](O)[C@@H]1O [Maltose] | − (when Y < 0.05, it is shown that the strain was not able to utilize this substance, marked as −) | – |
| OC[C@H]1O[C@@](CO)(O[C@H]2O[C@H](CO)[C@@H](O)[C@H](O)[C@H]2O)[C@@H](O[C@H]2O[C@H](CO)[C@@H](O)[C@H](O)[C@H]2O)[C@@H]1O [Melezitose] | ++ (when Y > 0.1, it is shown that the strain was able to effectively utilize this substance, marked as++) | – |
| COC(C)=O [Methyl acetate] | ++ (when Y > 0.1, it is shown that the strain was able to effectively utilize this substance, marked as++) | – |
| COC(=O)C(C)O (stereo not shown) [Methyl lactate] | + (when 0.1 > Y > 0.05, it is shown that the strain was able to better utilize this substance, marked as +) | – |
| CC(=O)N[C@H]1C(O)O[C@H](CO)[C@H](O)[C@@H]1O (stereo partly drawn) [N-Acetyl-D-galactosamine] | − (when Y < 0.05, it is shown that the strain was not able to utilize this substance, marked as −) | – |
| CC(=O)N[C@H]1C(O)O[C@H](CO)[C@@H](O)[C@@H]1O (stereo partly drawn) [N-Acetyl-D-glucosamine] | − (when Y < 0.05, it is shown that the strain was not able to utilize this substance, marked as −) | – |
| CC(=O)N[C@H]1[C@@H](O)[C@H](O)[C@@H](CO)O[C@H]1O [N-Acetyl-β-D-mannosamine] | − (when Y < 0.05, it is shown that the strain was not able to utilize this substance, marked as −) | – |
| OC[C@H]1O[C@H](OC[C@H]2OC(O)(CO)[C@@H](O)[C@@H]2O)[C@H](O)[C@@H](O)[C@@H]1O (stereo partly shown) [Palatinose] | ++ (when Y > 0.1, it is shown that the strain was able to effectively utilize this substance, marked as++) | – |
| CCC(=O)O [Propionic acid] | − (when Y < 0.05, it is shown that the strain was not able to utilize this substance, marked as −) | – |
| CC(=O)C(=O)O [Pyruvic acid] | + (when 0.1 > Y > 0.05, it is shown that the strain was able to better utilize this substance, marked as +) | – |
| OC[C@@H](O)[C@@H](O)[C@@H](O)CO [Ribitol] | − (when Y < 0.05, it is shown that the strain was not able to utilize this substance, marked as −) | – |
| OCc1ccccc1O[C@@H]1O[C@H](CO)[C@@H](O)[C@H](O)[C@H]1O [Salicin] | − (when Y < 0.05, it is shown that the strain was not able to utilize this substance, marked as −) | – |
| OC[C@H]1O[C@H](OC[C@H]2O[C@H](OC[C@H]3O[C@H](O[C@]4(CO)O[C@H](CO)[C@@H](O)[C@@H]4O)[C@H](O)[C@@H](O)[C@@H]3O)[C@H](O)[C@@H](O)[C@H]2O)[C@H](O)[C@@H](O)[C@H]1O [Stachyose] | + (when 0.1 > Y > 0.05, it is shown that the strain was able to better utilize this substance, marked as +) | – |
| NC(=O)CCC(=O)O [Succinamide acid] | + (when 0.1 > Y > 0.05, it is shown that the strain was able to better utilize this substance, marked as +) | – |
| COC(=O)CCC(=O)O [Succinic acid methyl ester] | − (when Y < 0.05, it is shown that the strain was not able to utilize this substance, marked as −) | – |
| OC[C@H]1O[C@@](CO)(O[C@H]2O[C@H](CO)[C@@H](O)[C@H](O)[C@H]2O)[C@@H](O)[C@@H]1O [Sucrose] | − (when Y < 0.05, it is shown that the strain was not able to utilize this substance, marked as −) | – |
| Cc1cn([C@H]2C[C@H](O)[C@@H](CO)O2)c(=O)[nH]c1=O [Thymidine] | − (when Y < 0.05, it is shown that the strain was not able to utilize this substance, marked as −) | – |
| O=c1ccn([C@@H]2O[C@H](COP(=O)(O)O)[C@@H](O)[C@H]2O)c(=O)[nH]1 [Uridine-5′-monophosphate] | − (when Y < 0.05, it is shown that the strain was not able to utilize this substance, marked as −) | – |
| O=c1ccn([C@@H]2O[C@H](CO)[C@@H](O)[C@H]2O)c(=O)[nH]1 [Uridine] | − (when Y < 0.05, it is shown that the strain was not able to utilize this substance, marked as −) | – |
| OC[C@@H](O)[C@@H](O)CO [i-Erythritol] | − (when Y < 0.05, it is shown that the strain was not able to utilize this substance, marked as −) | – |
| O[C@H]1[C@H](O)[C@@H](O)[C@H](O)[C@@H](O)[C@H]1O [m-Inositol] | + (when 0.1 > Y > 0.05, it is shown that the strain was able to better utilize this substance, marked as +) | – |
| O=C(O)C(O)C(O)C(=O)O (stereo not shown) [m-Tartaric acid] | + (when 0.1 > Y > 0.05, it is shown that the strain was able to better utilize this substance, marked as +) | – |
| O=C(CO)[C@@H](O[C@H]1O[C@H](CO)[C@@H](O)[C@H](O)[C@H]1O)[C@H](O)[C@H](O)CO [turanose] | – | better utilization effect |

| Compound | Utilization (Y=OD590−OD750) | utilization effect (in words) |
| --- | --- | --- |
| OC[C@H]1O[C@@H]2O[C@H]3[C@H](O)[C@@H](O)[C@@H](O[C@H]4[C@H](O)[C@@H](O)[C@@H](O[C@H]5[C@H](O)[C@@H](O)[C@@H](O[C@H]6[C@H](O)[C@@H](O)[C@@H](O[C@H]7[C@H](O)[C@@H](O)[C@@H](O[C@H]1[C@H](O)[C@H]2O)O[C@@H]7CO)O[C@@H]6CO)O[C@@H]5CO)O[C@@H]4CO)O[C@@H]3CO [α-Cyclodextrin] | ++ (when Y > 0.1, it is shown that the strain was able to effectively utilize this substance, marked as++) | – |
| OC[C@H]1O[C@H](O)[C@H](O)[C@@H](O)[C@@H]1O [α-D-Glucose] | − (when Y < 0.05, it is shown that the strain was not able to utilize this substance, marked as −) | – |
| OC[C@H]1O[C@@H](O[C@H]2[C@H](O)[C@@H](O)[C@@H](O)O[C@@H]2CO)[C@H](O)[C@@H](O)[C@H]1O [α-D-Lactose] | − (when Y < 0.05, it is shown that the strain was not able to utilize this substance, marked as −) | – |
| CCC(O)C(=O)O (stereo not drawn) [α-Hydroxybutyric acid] | − (when Y < 0.05, it is shown that the strain was not able to utilize this substance, marked as −) | – |
| O=C(O)CCC(=O)C(=O)O [α-Ketoglutaric acid] | − (when Y < 0.05, it is shown that the strain was not able to utilize this substance, marked as −) | – |
| CCCC(=O)C(=O)O [α-Ketovaleric acid] | − (when Y < 0.05, it is shown that the strain was not able to utilize this substance, marked as −) | – |
| COC1OC(CO)C(O)C(O)C1O [α-Methyl-D-galactoside] | − (when Y < 0.05, it is shown that the strain was not able to utilize this substance, marked as −) | – |
| CO[C@H]1O[C@H](CO)[C@@H](O)[C@H](O)[C@H]1O [α-Methyl-D-glucoside] | − (when Y < 0.05, it is shown that the strain was not able to utilize this substance, marked as −) | – |
| OC[C@H]1O[C@@H]2O[C@H]3[C@H](O)[C@@H](O)[C@@H](O[C@H]4[C@H](O)[C@@H](O)[C@@H](O[C@H]5[C@H](O)[C@@H](O)[C@@H](O[C@H]6[C@H](O)[C@@H](O)[C@@H](O[C@H]7[C@H](O)[C@@H](O)[C@@H](O[C@H]8[C@H](O)[C@@H](O)[C@@H](O[C@H]1[C@H](O)[C@H]2O)O[C@@H]8CO)O[C@@H]7CO)O[C@@H]6CO)O[C@@H]5CO)O[C@@H]4CO)O[C@@H]3CO [β-Cyclodextrin] | − (when Y < 0.05, it is shown that the strain was not able to utilize this substance, marked as −) | – |
| CC(O)CC(=O)O (stereo not drawn) [β-Hydroxybutyric acid] | − (when Y < 0.05, it is shown that the strain was not able to utilize this substance, marked as −) | – |
| CO[C@@H]1O[C@H](CO)[C@@H](O)[C@H](O)[C@H]1O [β-Methyl-D-galactoside] | − (when Y < 0.05, it is shown that the strain was not able to utilize this substance, marked as −) | – |
| CO[C@@H]1O[C@H](CO)[C@@H](O)[C@H](O)[C@H]1O [β-Methyl-D-glucoside] | − (when Y < 0.05, it is shown that the strain was not able to utilize this substance, marked as −) | – |
| D-Aminoglucuronate | ++ (when Y > 0.1, it is shown that the strain was able to effectively utilize this substance, marked as++) | – |
| Dextrin | − (when Y < 0.05, it is shown that the strain was not able to utilize this substance, marked as −) | – |
| Glycine-L-aspartic acid | − (when Y < 0.05, it is shown that the strain was not able to utilize this substance, marked as −) | – |
| Hexanediol | − (when Y < 0.05, it is shown that the strain was not able to utilize this substance, marked as −) | – |
| L-Alanyl-L-M-glutamate | − (when Y < 0.05, it is shown that the strain was not able to utilize this substance, marked as −) | – |
| L-Alanyl-L-M-threonine | − (when Y < 0.05, it is shown that the strain was not able to utilize this substance, marked as −) | – |
| L-Asparagine acid | + (when 0.1 > Y > 0.05, it is shown that the strain was able to better utilize this substance, marked as +) | – |
| L-Glutamate salt | − (when Y < 0.05, it is shown that the strain was not able to utilize this substance, marked as −) | – |
| L-Uracilic acid | − (when Y < 0.05, it is shown that the strain was not able to utilize this substance, marked as −) | – |
| L-Valine + L-M-Aspartamid acid | − (when Y < 0.05, it is shown that the strain was not able to utilize this substance, marked as −) | – |
| Maltotriose | ++ (when Y > 0.1, it is shown that the strain was able to effectively utilize this substance, marked as++) | – |

Source: patent US20250222044A1, “LIMOSILACTOBACILLUS REUTERI GOLDGUT-LR99 AND APPLICATION THEREOF” (priority 2024, published 2025)
